Active and inactive are the calls of the source.
Key:
[1] = target: Lectin (Glycine max) (UniProt P05046); assay: Binding affinity to soybean lectin assessed as compound-protein complex formation incubated for 30 mins followed by UV irradiation by SDS-PAGE based photoaffinity labeling in presence of lactose
[2] = target: T1, Lectin (Erythrina crista-galli) (UniProt P83410); assay: Binding affinity to Erythrina cristagalli lectin assessed as compound-protein complex formation incubated for 30 mins followed by UV irradiation by SDS-PAGE based photoaffinity labeling
T1 sequence (whole entry): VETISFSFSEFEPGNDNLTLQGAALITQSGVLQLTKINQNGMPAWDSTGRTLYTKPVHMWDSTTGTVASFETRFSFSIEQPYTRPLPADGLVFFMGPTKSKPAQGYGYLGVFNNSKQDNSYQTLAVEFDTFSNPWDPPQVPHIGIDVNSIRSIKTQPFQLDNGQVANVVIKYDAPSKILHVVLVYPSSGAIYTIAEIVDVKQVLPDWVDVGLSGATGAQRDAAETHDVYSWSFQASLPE

[3] = target: Lectin (Glycine max) (UniProt P05046); assay: Binding affinity to soybean lectin assessed as compound-protein complex formation incubated for 30 mins followed by UV irradiation by SDS-PAGE based photoaffinity labeling
[4] = target: T1, Lectin (Erythrina crista-galli); assay: Binding affinity to Erythrina cristagalli lectin assessed as compound-protein complex formation incubated for 30 mins followed by UV irradiation by SDS-PAGE based photoaffinity labeling in presence of lactose

Measured: Activity

Lectin (Glycine max), sequence (P05046 whole entry): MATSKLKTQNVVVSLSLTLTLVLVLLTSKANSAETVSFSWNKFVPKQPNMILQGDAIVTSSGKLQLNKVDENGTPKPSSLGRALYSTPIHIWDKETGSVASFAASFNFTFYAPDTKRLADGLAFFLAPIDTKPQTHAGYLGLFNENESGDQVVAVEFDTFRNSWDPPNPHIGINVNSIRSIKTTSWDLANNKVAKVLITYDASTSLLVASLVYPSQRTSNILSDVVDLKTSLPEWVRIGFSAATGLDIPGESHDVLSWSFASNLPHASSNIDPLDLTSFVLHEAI

O=C(CCCC[C@@H]1SC[C@H]2NC(=O)N[C@@H]12)NCCOCCOCCOc1cc(C2(C(F)(F)F)N=N2)ccc1CO/N=C/[C@@H](O)[C@@H](O)[C@H](O[C@@H]1O[C@H](CO)[C@H](O)[C@H](O)[C@H]1O)[C@H](O)CO
active: all assays above

From ChEMBL document CHEMBL1641507, “The effect of structural differences in the reducing terminus of sugars on the binding affinity of carbohydrates and proteins analyzed using photoaffinity labeling” (Bioorg Med Chem, 2011)
